US20260317308A1, “A SEQUENCE SELECTIVE DNA BINDING MOLECULE (SYNGRADER)” (ST. JUDE CHILDREN'S RESEARCH HOSPITAL, INC., priority 2023, published 2026)

Assays:
[1] = tested on: TCF3-PBX1-HaloTag; assay: P2RY10 luciferase reporter assay in HEK293T cells expressing Doxycycline-inducible TCF3-PBX1-HaloTag; format: cell-based, human
Description: Cells were transfected with P2RY10-Luciferase reporter plasmid DNA which contains the 282 bp P2RY10 promoter sequence cloned downstream of a minimal TATA box promoter. After 24 hours, the cells were treated with 0.70 and 1.0 μM PBX-SynTEF2 (SnTF2), SynTEF-PBX-DRG1 (DRG1), and SynTEF-PBX-DRG2 (DRG2). The SynTEF-PBX-DRG1 compound carries the Thalidomide ligand for recruitment of the Cerbelon E3-Ligase, and SynTEF-PBX-DRG2 has a VHL ligand for the recruitment of the VHL E3-Ligase. Doxycycline (DOX) was added at 0.1 ug/mL concentration to induce TCF3-PBX1-HaloTag expression, and 48 hours after DOX addition, NanoGlo Luciferase expression (Promega) was measured in the medium (Luciferase protein is secreted by the cells). Luciferase activity was calculated as Fold Change compared to “DMSO without DOX” control cells (purple bar), Error bars: Standard deviation. N>6 biological replicates.

[2] = tested on: NALM6 (N6) Acute Lymphoblastic Leukemia (ALL) B cells expressing TCF3-PBX1-HaloTag; assay: Cell viability assay (CellTiterGlo) in NALM6 ALL cells with Doxycycline-inducible TCF3-PBX1-HaloTag, co-transfected with P2RY10 and CMV luciferase reporter plasmids; format: cell-based; settings: for loss in cell viability: loaded on WT TR DNA-Aptamer, vs DMSO no DOX
Description: The N6-TCF3-PBX1-HaloTag cells were Nucleofected (Lonza) with P2RY10-Luciferase and CMV promoter Luciferase reporter plasmid DNAs. After 24 hours, cells were treated with either wildtype (WT) or Mutant (MT) Transferrin Receptor (TR) WGGWWW DNA-Aptamers pre-loaded with PBX-SynTEF-FL (SnTF-FL), SynTEF-PBX-DRG1 (DRG1), and SynTEF-PBX-DRG2 (DRG2). The WT and MT DNA-Aptamers contain WGGWWW tail duplex DNA sequences that bind the PBX-SynTEF payloads, but only WT DNA-Aptamers can bind to TR present on the cell surface of NALM6 ALL cells, resulting in TR-mediated cellular internalization of the polyamide compounds. The MT DNA-Aptamer, has a GG to AA dinucleotide substitution which prevents binding to the TR (*see Cheng et al, 2022). Thus, cells treated with the MT DNA-Aptamer-SynTEF complexes serve as negative controls, since without a functional Aptamer, it is unlikely that the polyamides are taken up by the NALM6 cells. Doxycycline (DOX) was added at 0.1 ug/mL concentration to induce TCF3-PBX1-HaloTag expression, and 48 hours after DOX addition, cell viability was measured using CellTiterGlo reagent (Promega) which detects ATP present only in live cells. CellTiterGlo activity was calculated as Fold Change compared to “DMSO no DOX” treated cells which had the highest cell viability (dark blue bars). Error bars: Standard deviation. N>6 biological replicates.

With `CSCCC(NC(=O)C(Cc1c[nH]c2ccccc12)NC(=O)C1CCCN1C(=O)C(Cc1ccc(O)cc1)NC(=O)C(Cc1ccccc1)NC(C)=O)C(=O)NC(CCCCNC(=O)CCOCCOCCOCCOCCOc1cccc2c1C(=O)N(C1CCC(=O)NC1=O)C2=O)C(=O)NCC(=O)NCCOCCOCCOCCC(=O)NCCCN(C)CCCNC(=O)CCNC(=O)c1cc(NC(=O)c2cc(NC(=O)c3cc(NC(=O)c4cc(NC(=O)CCCNC(=O)c5cc(NC(=O)c6cc(NC(=O)c7nc(NC(=O)c8nccn8C)cn7C)cn6C)cn5C)cn4C)cn3C)cn2C)cn1C` (stereo not drawn) [SynTEF-PBX-DRG1] the “further increase of Luciferase expression above DMSO plus DOX baseline (in words)” value ([1]; both 0.70 and 1.0 μM, with DOX) was “fail to further increase Luciferase expression”, the “activity of the oncogenic TCF3-PBX1 fusion in cell-based reporters (in words)” value ([1]; cell-based reporters) was “reduced activity” and the “toxicity to the cells (in words)” value ([2]; NALM6 cells, without DOX) was “toxic to the cells but only when internalized”. The “loss in cell viability” value ([2]; with DOX 0.1 ug/mL, 48 h) was ~ 85%, the “cell viability compared to +DOX DMSO and +DOX SynTF-FL cells (in words)” value ([2]; with DOX, loaded on MT DNA-Aptamer (negative control)) was “comparable viability” and the “loss in cell viability” value ([2]; without DOX, both P2RY10 and CMV nucleofected cells) was 70-80%.
